PMC8365602 (Journal of Medicinal Chemistry, 2021)

How the values were obtained:
[1] = test system: E. coli-stimulated macrophages; assay: Arachidonic acid release from E. coli-stimulated macrophages; type: cell-based, human; details: ≤1 μM
Experimental: Macrophages were stimulated in PBS pH 7.4 (containing 1 mM CaCl2) with E. coli (serotype O6:K2:H1) at a ratio of 1:50 (macrophages: E. coli) for 180 min at 37 °C and 5% CO2.[24]
Fatty acids and lipid mediators were extracted from macrophage supernatants or murine peritoneal exudates (1 mL) after addition of two aliquots of ice-cold methanol.[23]d8-5S-HETE, d4-LTB4, d5-lipoxin A4, d5-resolvin D2, d4-PGE2 (200 nM, each, Cayman Chemicals), and d8-arachidonic acid (10 μM, Cayman Chemicals) were added as internal standards. After protein precipitation at −20 °C for ≥1 h, supernatants (1200g, 10 min, 4 °C) were acidified (pH 3.5) and loaded onto solid-phase cartridges (Sep-Pak Vac 6cc 500 mg/6 mL C18; Waters), which had been equilibrated with methanol and H2O. The columns were extensively washed with H2O and hexane before lipid mediators were eluted with methyl formate, evaporated to dryness, dissolved in methanol/H2O (50:50), and analyzed by UPLC-MS/MS.[23]
Absolute quantification was based on 6 internal and 45 external standards.[23]

human recombinant COX-2 = molecular target: T1, human recombinant COX-2 (Homo sapiens, UniProt P35354); assay: COX-2 activity; type: biochemical
T1 construct: purchased Cayman Chemicals
Experimental: Purified ovine COX-1 (Cayman Chemicals; 50 units) or human recombinant COX-2 (Cayman Chemicals; 20 units) was dissolved in 100 mM Tris buffer pH 8, 5 mM glutathione, 5 μM hemoglobin, and 100 μM EDTA. COX isoenzymes were preincubated with the vehicle (DMSO) or 27a for 5 min at 4 °C and 1 min at 37 °C. Addition of arachidonic acid (COX-1: 5 μM; COX-2: 2 μM) initiated the formation of COX-derived 12(S)-hydroxy-5-cis-8,10-trans-heptadecatrienoic acid (12-HHT), which was extracted and analyzed by RP-HPLC according to 5-LOX products.

[2] = test system: reconstructed human epidermis (RHE); assay: Experimental atopic dermatitis in reconstructed human epidermis (RHE); type: cell-based; details: RHE
Experimental: Compound 27a was evaluated in an inflammatory model of RHE by Synelvia S.A.S. (Labège, France) according to the company’s protocol.[88] In brief, primary human keratinocytes were used to generate RHE on polycarbonate filters as described.[88] RHE was allowed to acclimate for 6 days (5% CO2, 37 °C) prior to incubation with 27a (5, 10, 25 μM), dexamethasone (1 μM), or vehicle (0.05% DMSO), and a proinflammatory cytokine cocktail for 4 days at 5% CO2 and 37 °C. The culture medium including compounds and cytokines was changed on days 6, 8, and 10. Each culture condition was repeated three times. Acute cytotoxicity of 27a was excluded at the concentrations studied within 24 h by measuring the mitochondrial dehydrogenase activity (MTT assay).
Morphological changes (i.e., spongiosis and the formation of keratohyalin granules) were evaluated for sections of paraffin-embedded RHEs after hematoxylin-eosin staining.[89] The permeability of the skin barrier was estimated from the transepidermal water loss at the RHE surface.[90] The surface pH was determined with a pH electrode as reported.[89] The permeability of the stratum corneum was addressed by applying Lucifer yellow onto the RHE surface and inspecting the penetration by fluorescence microscopy.[88] TSLP and IL-8 levels were analyzed by ELISA (according to the specifications of Synelvia S.A.S.) in the culture medium on day 2 and day 4 after addition of cytokines, respectively.

[3] = Concentrations of compound in plasma and lung in the asthma model; type: in vivo, mice; details: 10 mg/kg p.o. on days 0 and 7
Experimental: LCMs, 27a, and 27a metabolites were extracted from PMNL, medium of the liver-on-chip, murine plasma, peritoneal exudate, or homogenized murine tissue as described.[6] In brief, PBS pH 7.4, methanol, chloroform, and saline (final ratio: 14:34:35:17) were successively added together with 13d (9 pmol) as the internal standard. The organic layer was evaporated, and the extracted LCMs were dissolved in methanol.
LCMs, 27a, and 27a metabolites were separated at a flow rate of 0.8 mL/min and a column temperature of 45 °C, with acetonitrile/H2O (10:90) as mobile phase A and acetonitrile as mobile phase B, both acidified with 0.07% formic acid. […] Signal intensities were normalized to the internal standard 13d, and concentrations were calculated using external calibration curves as specified in Table S3.
BALB/c mice received 27a (p.o.) or vehicle (0.5% carboxymethylcellulose in 10% Tween 20; 0.5 mL) on days 0 and 7, 1 h (p.o) before being sensitized to ovalbumin (100 μg adsorbed to 3.3 mg of aluminum hydroxide gel, s.c., Sigma-Aldrich). […] To assess bronchial reactivity, the cumulative response to carbachol (0.001 to 3.16 μM) was measured. Bronchial relaxation was determined from the cumulative response of precontracted bronchial tissues to salbutamol. Compound 27a, LTB4, and LTB4 isomers were analyzed in plasma and lung homogenates by UPLC-MS/MS. […]

[4] = molecular target: single mutant Arg101Asp 5-LOX (R101D) (Homo sapiens, UniProt P09917, R102D); assay: Cell-free activity of 5-LOX single mutant (R101D)
single mutant Arg101Asp 5-LOX (R101D), sequence (P09917 whole entry R102D): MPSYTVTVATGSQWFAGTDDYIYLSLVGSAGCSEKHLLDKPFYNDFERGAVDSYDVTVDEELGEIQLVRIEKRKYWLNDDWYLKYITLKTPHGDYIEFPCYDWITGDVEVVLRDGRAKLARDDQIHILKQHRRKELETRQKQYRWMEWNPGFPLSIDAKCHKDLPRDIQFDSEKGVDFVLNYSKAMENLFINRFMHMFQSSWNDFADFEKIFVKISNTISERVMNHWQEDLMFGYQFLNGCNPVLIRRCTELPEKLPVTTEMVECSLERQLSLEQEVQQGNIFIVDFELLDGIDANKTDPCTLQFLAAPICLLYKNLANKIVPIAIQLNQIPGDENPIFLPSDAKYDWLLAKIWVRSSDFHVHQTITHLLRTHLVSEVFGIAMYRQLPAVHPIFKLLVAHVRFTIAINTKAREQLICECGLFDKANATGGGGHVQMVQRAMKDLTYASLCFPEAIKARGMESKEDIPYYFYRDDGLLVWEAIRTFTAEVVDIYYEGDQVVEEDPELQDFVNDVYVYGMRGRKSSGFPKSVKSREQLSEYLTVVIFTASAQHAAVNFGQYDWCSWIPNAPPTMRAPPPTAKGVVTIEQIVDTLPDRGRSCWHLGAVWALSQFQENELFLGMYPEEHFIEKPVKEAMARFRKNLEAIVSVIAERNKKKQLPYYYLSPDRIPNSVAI
Experimental: Human recombinant 5-LOX was expressed in E. coli Bl21 (DE3) cells that were transformed with pT3–5LOX (wt 5-LOX), 5-LOX_3W (triple mutation of Trp102Ala/Trp13Ala/Trp75Ala), or 5-LOX_R (single mutant of the Arg101Asp plasmid) and purified on an ATP-agarose column (Econo-Pac, Bio-Rad, Hercules, CA) by affinity chromatography.[6],[75]
Purified 5-LOX (0.5 μg in PBS pH 7.4 containing 1 mM EDTA and 1 mM ATP) was preincubated with the vehicle (DMSO) or test compounds for 10 min and prewarmed at 37 °C.

T1 sequence (P35354 18-604): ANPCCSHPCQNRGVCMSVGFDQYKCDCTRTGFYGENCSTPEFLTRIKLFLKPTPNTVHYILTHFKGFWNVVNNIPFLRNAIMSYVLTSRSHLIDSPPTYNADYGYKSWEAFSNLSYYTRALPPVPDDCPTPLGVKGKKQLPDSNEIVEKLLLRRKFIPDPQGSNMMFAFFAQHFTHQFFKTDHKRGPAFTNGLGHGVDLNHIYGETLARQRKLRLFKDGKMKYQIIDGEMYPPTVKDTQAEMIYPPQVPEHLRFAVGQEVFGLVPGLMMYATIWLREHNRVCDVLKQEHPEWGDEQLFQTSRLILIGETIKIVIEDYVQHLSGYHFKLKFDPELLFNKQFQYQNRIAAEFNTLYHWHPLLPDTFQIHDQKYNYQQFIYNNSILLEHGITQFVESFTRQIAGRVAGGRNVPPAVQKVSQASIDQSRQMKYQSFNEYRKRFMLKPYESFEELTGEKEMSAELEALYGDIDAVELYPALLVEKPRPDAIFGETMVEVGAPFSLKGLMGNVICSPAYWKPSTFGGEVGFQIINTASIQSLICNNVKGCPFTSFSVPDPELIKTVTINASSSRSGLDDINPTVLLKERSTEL

C/C(=C\CC/C(C)=C/CC[C@]1(C)CCc2c(C)c(O)c(C)c(C)c2O1)CCC=C(CO)CO [Compound 27a, α-amplexichromanol]
Availability of free arachidonic acid [1]: neither reduced the availability of free arachidonic acid
COX-2 inhibition (human recombinant COX-2): not substantially inhibited
TSLP expression ([2]; cytokine cocktail 2 days): did not influence TSLP expression
Epidermal disorganization induced by cytokine treatment ([2]; cytokine cocktail 4 days): attenuated the epidermal disorganization
IL-8 levels ([2]; cytokine cocktail 4 days): reduced IL-8 levels
Skin barrier functions (TEWL, Lucifer yellow) ([2]; cytokine cocktail 4 days): substantially improved skin barrier functions
pH at the RHE surface ([2]; cytokine cocktail 4 days): decreased even below the basal level
Time course of systemic concentrations in plasma and lung [3]: peaked at the days after administration (days 1 and 8) and then rapidly declined
Effect of Arg101Asp replacement on 5-LOX inhibition [4]: failed to affect 5-LOX inhibition
